Calls of active or inactive are those of the source.

Among the data in ChEMBL document CHEMBL1201862, “PubChem BioAssay data set” (2004) are IC50, CC50 and AC50 values, retold here.

The target of test [1] is T1, Polyadenylate-binding protein 1 (Homo sapiens, UniProt P11940). Description: PABP1 MLLE–PAM2 interaction inhibitors, dose response, miRNA deadenylation inhibitor project, biochemical, fluorescence polarization, Cy5-PAM2 peptide, secondary (AID 602260). Type of test: functional. To be noted: read-out: IC50_Mean. For orientation: Polarisation of emitted light reports the rotation of a fluorescent probe.
T1 sequence (P11940 whole entry): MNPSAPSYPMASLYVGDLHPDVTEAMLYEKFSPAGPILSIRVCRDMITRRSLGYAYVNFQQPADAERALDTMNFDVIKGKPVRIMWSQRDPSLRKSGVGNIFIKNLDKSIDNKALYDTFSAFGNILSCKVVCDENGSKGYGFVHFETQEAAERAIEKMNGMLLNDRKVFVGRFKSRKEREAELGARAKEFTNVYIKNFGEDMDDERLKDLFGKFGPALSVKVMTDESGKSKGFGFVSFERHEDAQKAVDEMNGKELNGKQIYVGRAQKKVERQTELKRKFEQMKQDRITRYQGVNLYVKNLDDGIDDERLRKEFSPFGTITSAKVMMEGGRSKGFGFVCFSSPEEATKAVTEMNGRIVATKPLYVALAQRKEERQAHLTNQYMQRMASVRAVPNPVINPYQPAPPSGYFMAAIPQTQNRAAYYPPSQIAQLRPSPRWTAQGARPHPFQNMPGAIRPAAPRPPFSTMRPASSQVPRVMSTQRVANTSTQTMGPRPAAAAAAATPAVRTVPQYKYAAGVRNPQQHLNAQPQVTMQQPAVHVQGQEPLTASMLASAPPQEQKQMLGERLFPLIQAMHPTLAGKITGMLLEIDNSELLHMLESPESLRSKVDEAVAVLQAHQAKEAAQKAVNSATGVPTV

A further test relates to Vero. Description: Vero cell cytotoxicity, cytotoxicity control for flavivirus capping enzyme inhibitors (AID 588742). Type of test: functional. To be noted: Chlorocebus sabaeus.
Test [2] concerns the target T1, Polyadenylate-binding protein 1. As to the kind of experiment: PABP1 MLLE–PAM2 binding inhibitor potency, dose response, biochemical, fluorescence polarization, FITC-PAM2 peptide (AID 602259). The test is classed as functional. To be noted: read-out: IC50_Mean.
In test [3] the target is T2, SUMO-activating enzyme (Homo sapiens, UniProt Q9UBT2). Description: SUMOylation inhibitor hit validation, confirmation, SUMOylation inhibitor project, biochemical, AlphaScreen (AID 2018). The test is classed as functional. (In Alpha technology, singlet oxygen from a donor bead excites a nearby acceptor bead.)
T2 sequence (Q9UBE0 whole entry): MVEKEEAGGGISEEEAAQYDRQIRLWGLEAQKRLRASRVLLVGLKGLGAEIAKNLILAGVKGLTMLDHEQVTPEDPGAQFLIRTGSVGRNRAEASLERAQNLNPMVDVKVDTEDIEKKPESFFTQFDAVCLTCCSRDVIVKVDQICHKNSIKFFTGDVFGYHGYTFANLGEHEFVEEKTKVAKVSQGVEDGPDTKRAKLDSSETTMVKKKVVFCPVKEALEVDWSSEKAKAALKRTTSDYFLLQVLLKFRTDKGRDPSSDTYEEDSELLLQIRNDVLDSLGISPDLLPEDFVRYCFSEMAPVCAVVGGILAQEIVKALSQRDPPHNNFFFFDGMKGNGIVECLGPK
T2 sequence (Q9UBT2 whole entry): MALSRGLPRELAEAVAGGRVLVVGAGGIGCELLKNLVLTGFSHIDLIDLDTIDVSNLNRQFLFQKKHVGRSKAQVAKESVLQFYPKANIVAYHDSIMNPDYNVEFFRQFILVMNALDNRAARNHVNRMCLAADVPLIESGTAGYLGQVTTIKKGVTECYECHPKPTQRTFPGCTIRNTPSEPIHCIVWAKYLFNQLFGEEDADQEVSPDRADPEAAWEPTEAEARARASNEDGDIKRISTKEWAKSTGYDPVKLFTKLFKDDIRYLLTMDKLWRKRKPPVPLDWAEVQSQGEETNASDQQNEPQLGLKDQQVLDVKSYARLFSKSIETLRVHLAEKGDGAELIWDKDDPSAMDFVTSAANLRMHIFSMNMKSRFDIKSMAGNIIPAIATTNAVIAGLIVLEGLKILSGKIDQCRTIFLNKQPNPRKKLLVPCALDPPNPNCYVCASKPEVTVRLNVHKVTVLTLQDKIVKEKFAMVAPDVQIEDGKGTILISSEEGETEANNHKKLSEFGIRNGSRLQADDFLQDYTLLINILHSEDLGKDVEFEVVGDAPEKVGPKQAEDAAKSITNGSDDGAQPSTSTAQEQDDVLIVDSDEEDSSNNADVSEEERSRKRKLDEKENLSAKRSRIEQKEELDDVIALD
Test [4] has as its target T2, SUMO-activating enzyme. Description: inhibitors of in vitro SUMOylation cascade, primary screen, biochemical, HTRF, uHTS (AID 2006). The test is classed as protein-complex assay. (In general: TR-FRET usually uses a lanthanide donor and a delayed reading to cut background.)
For test [5], the target named is T3, Sentrin-specific protease 7 (Homo sapiens, UniProt Q9BQF6).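 Note: Luminescence-based dose-response confirmation of ultra-high-throughput screening hits, measuring inhibition of SENP7.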
T3 sequence (Q9BQF6 whole entry): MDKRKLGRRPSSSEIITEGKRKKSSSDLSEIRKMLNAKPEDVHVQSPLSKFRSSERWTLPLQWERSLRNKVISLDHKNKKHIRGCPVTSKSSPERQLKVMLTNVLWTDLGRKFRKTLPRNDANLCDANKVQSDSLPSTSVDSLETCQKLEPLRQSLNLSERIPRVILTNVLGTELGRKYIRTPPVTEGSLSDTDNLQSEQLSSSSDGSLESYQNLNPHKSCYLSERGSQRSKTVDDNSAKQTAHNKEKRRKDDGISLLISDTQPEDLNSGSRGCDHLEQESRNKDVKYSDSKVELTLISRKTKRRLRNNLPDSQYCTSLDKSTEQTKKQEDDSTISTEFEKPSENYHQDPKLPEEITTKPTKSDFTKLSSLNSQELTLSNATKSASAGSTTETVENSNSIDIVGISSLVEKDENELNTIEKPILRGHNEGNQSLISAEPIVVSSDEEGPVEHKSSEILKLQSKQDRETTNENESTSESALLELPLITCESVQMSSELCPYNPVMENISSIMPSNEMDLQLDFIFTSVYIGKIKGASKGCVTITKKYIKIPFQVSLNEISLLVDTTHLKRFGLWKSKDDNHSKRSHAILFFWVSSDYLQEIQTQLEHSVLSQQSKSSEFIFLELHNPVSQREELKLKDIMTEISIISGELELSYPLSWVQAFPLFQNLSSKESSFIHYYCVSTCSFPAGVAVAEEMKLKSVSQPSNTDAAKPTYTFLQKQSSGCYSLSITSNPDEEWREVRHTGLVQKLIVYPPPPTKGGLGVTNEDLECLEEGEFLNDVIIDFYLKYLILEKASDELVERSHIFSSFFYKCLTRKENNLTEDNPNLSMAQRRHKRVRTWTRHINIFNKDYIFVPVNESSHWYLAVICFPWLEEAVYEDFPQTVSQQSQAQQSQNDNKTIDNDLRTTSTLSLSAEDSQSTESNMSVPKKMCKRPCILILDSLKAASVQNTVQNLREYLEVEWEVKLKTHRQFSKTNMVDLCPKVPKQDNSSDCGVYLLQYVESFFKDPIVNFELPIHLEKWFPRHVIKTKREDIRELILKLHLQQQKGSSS
The test is classed as functional.

A further test addresses Caspase-9 (Homo sapiens, UniProt P55211). Description: caspase-9 enzyme inhibition, dose response, selectivity assay for caspase-6 inhibitor project, biochemical, fluorescence, plate reader, cherry-picked samples (AID 743293).
For a further test, the target named is Caspase-8 (Homo sapiens, UniProt Q14790). Description: caspase-8 inhibition counter-screen, dose response, selectivity assay for caspase-6 inhibitor project, biochemical, Z-IETD-R110 fluorescence, cherry-picked samples (AID 743294).
Sequence of Caspase-8 (Q14790 217-374 limits assumed): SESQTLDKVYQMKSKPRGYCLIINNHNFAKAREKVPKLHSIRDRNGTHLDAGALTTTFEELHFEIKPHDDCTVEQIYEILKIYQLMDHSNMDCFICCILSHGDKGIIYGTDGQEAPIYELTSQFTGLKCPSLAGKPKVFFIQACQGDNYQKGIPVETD
Sequence of Caspase-8 (Q14790 385-479 limits assumed): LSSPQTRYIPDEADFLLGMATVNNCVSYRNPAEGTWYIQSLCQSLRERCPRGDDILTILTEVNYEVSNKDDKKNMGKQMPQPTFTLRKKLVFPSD
For the next test, the target named is T4, Caspase-3 (Homo sapiens, UniProt P42574).
T4 sequence (P42574 whole entry): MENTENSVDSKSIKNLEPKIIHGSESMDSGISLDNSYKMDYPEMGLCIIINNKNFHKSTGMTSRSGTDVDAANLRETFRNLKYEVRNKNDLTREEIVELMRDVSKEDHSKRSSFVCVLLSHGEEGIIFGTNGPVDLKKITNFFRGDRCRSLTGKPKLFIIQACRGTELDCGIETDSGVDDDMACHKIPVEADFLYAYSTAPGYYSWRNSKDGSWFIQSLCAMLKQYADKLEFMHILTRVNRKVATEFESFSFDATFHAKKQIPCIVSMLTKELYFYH
Description: caspase-3 enzyme inhibitors, selectivity check, dose response, selectivity assay for caspase-6 allosteric inhibitor project, biochemical, fluorescence, cherry-picked samples (AID 743291).

For a further test, the target named is T5, Caspase-6 (Homo sapiens, UniProt P55212).
T5 sequence (P55212 whole entry): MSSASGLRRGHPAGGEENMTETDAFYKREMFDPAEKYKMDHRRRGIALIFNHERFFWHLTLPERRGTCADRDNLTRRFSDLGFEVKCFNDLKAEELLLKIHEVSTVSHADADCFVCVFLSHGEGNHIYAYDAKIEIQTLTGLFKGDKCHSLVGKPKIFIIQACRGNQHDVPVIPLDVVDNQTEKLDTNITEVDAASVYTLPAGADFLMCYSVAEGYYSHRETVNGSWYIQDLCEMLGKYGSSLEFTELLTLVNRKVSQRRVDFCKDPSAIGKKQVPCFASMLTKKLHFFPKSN
As to the kind of experiment: human caspase-6 inhibitors, dose response, biochemical, VEID-R110 fluorescence, cherry-pick (AID 720632).

In another test the target is Caspase-7 (Homo sapiens, UniProt P55210). As to the kind of experiment: human caspase-7 inhibitors, dose response, selectivity assay for caspase-6 inhibitor project, biochemical, DEVD-R110 fluorescence, cherry-pick (AID 743295). The test is classed as […].
Sequence of Caspase-7 (P55210 24-198 limits assumed): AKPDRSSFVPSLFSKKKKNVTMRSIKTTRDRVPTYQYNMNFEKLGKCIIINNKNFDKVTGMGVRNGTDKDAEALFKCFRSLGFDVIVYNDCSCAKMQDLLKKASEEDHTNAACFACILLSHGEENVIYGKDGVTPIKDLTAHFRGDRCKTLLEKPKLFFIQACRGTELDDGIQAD
Sequence of Caspase-7 (P55210 207-303 limits assumed): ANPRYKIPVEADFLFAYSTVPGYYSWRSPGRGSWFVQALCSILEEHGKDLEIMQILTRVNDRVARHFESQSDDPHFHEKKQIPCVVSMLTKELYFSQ
Test [6] has as its target T6, DNA repair protein RAD52 homolog (Homo sapiens, UniProt P43351).
T6 sequence (P43351 whole entry): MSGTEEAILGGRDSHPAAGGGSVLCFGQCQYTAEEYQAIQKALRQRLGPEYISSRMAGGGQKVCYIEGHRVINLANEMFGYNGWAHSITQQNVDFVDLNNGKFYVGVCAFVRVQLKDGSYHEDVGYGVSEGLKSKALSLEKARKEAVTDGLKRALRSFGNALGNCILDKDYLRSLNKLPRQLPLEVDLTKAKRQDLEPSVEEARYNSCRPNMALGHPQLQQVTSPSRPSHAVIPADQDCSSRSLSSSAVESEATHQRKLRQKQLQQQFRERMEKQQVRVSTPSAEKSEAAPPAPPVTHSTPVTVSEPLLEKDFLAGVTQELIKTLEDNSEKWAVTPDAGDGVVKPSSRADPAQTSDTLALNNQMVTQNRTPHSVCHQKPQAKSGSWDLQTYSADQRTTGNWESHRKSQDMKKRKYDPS
Type of test: functional, biochemical.

Sequence of Caspase-9 (P55211 1-315 limits assumed): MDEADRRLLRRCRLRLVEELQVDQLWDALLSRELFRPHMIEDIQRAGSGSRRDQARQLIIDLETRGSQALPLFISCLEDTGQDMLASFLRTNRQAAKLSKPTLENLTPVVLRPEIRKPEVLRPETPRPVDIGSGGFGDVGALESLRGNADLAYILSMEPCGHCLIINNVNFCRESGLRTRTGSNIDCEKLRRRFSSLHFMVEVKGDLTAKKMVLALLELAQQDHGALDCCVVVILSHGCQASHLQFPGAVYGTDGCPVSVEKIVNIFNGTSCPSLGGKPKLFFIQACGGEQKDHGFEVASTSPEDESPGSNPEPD
Sequence of Caspase-9 (P55211 331-416 limits assumed): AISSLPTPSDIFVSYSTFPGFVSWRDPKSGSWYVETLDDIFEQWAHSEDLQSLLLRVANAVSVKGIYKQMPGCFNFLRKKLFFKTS

A word on the CC50: it is the concentration at which the toxic effect on the cells reaches its halfway point. Take `COC1=C(c2ccccc2)C(=O)c2ccccc2C1=O`: the IC50 in test [1] and in test [2] was > 66 µM (inactive) throughout. Moreover, the CC50 in the test on Vero is 17.8 µM (active).

In the case of `O=C1C(Cl)=C(N2CCC(C(=O)O)CC2)C(=O)c2ccccc21`, the IC50 at SUMO-activating enzyme [3] is 5.75 µM (active); at SUMO-activating enzyme [4], 24 µM (active); in test [5], 29.1 µM (active).

For orientation: AC50 means the concentration at which the activity in the assay is half-maximal. `COc1cc2c(cc1OC)-c1c(OC)c(OC)cc3c1[C@H](C2)N(C)CC3`: the AC50 on Caspase-9 is 39.9 µM (active); on Caspase-8 it was 48.1 µM (active); at Caspase-3, 6.27 µM (active); at Caspase-6, 0.926 µM (active); at Caspase-7, 1.77 µM (active); in test [6], 2.86 µM (active). Moreover, the IC50 in test [5] was 7.64 µM (active).
